Measurements reported in US20260049076A1, “Tertiary Amine Substituted Bicyclic Compounds Useful as T Cell Activators” (BRISTOL-MYERS SQUIBB COMPANY, priority 2022, published 2026).

Experiments:
human DGKα = target: T1, human DGKα (Homo sapiens, UniProt P23743); experiment: In vitro DGK inhibition assay, DGKα liposome (LIPGLO) assay; format: biochemical; conditions: read-out: Enzyme Inhibition DGKalpha IC50
T1 construct: TVMV protease cleavage site (C); Hexa-His (C); made in house; host or cells: Sf9 insect cells (baculovirus)
T1 sequence (P23743 with tags, fused parts or gaps): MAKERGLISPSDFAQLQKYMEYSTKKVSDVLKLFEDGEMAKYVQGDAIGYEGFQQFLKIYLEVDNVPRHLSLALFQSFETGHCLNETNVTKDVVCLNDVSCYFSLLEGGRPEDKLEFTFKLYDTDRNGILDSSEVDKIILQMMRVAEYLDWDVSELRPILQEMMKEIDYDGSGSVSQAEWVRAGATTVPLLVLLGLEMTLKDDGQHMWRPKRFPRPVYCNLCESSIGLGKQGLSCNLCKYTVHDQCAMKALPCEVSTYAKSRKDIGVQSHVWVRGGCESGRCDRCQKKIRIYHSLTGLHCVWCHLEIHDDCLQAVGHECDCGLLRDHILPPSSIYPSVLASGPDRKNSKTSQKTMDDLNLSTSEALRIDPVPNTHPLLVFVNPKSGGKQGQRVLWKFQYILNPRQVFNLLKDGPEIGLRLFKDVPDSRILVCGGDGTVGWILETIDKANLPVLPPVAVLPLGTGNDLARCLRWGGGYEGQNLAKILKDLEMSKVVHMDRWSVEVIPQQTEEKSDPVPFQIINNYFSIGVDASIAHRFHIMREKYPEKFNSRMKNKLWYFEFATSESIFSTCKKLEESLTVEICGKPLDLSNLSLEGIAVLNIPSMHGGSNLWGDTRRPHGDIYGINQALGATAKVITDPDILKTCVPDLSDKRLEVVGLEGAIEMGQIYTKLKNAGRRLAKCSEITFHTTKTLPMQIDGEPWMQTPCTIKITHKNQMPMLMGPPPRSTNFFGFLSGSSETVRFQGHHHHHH
Experimental: (§1) The DGKα and DGKζ reactions were performed using either extruded liposome (DGKα and DGKζ LIPGLO assays) or detergent/lipid micelle substrate (DGKα and DGKζ assays). The reactions were carried out in 50 mM MOPS pH 7.5, 100 mM NaCl, 10 mM MgCl2, 1 μM CaCl2, and 1 mM DTT (assay buffer). The reactions using a detergent/lipid micelle substrate also contained 50 mM octyl B-D-glucopyranoside. The lipid substrate concentrations were 11 mM PS and 1 mM DAG for the detergent/lipid micelle reactions. The lipid substrate concentrations were 2 mM PS, 0.25 mM DAG, and 2.75 mM PC for the extruded liposome reactions (5 mM total lipid). The reactions were carried out in 150 μM ATP The enzyme concentrations for the DGKα and DGKζ were 5 nM
(§2) The compound inhibition studies were carried out as follows: 25 nL (ADPGLO assay) or 50 nL (LIPGLO assay) droplets of each test compound (top concentration 10 mM with 11 point, 3-fold dilution series for each compound) solubilized in DMSO were transferred to wells of a white 1536 well plate (Corning 3725). A 5 mL enzyme/lipid substrate solution at 2× final reaction concentration was prepared by combining 2.5 mL 4× enzyme solution (20 nM DGKα, or DGKζ (prepared as described below) in assay buffer) and 2.5 mL of either 4× liposome or 4× detergent/lipid micelle solution (compositions described below) and incubated at room temperature for 10 minutes. Next, 1 μL 2× enzyme/lipid substrate solution was added to wells containing the test compound and reactions were initiated with the addition of 1 μL 300 uM ATP. The reactions were allowed to proceed for 2 hr (ADPGLO assay) or 1 hr (LIPGLO assay), after which 2 μL Glo Reagent (Promega V9101) was added and incubated for 40 minutes. Next, 4 μL Kinase Detection Reagent was added and incubated for 30 minutes. Luminescence was recorded using an EnVision microplate reader. […] The compounds were evaluated at 11 concentrations to determine IC50.
(§3) The lipid composition was 5 mol % DAG (Avanti 8008110), 40 mol % PS (Avanti 840035P), and 55 mol % PC (Avanti 850457) at a total lipid concentration of 7-8 mg/mL for the liposome solution. The PC, DAG, and PS were dissolved in chloroform, combined, and dried in vacuo to a thin film. The lipids were hydrated to 20 mM in 50 mM MOPS pH 7.5, 100 mM NaCl, 5 mM MgCl2, and were freeze-thawed five times. The lipid suspension was extruded through a 100 nm polycarbonate filter 10-12 times. […] The liposome preparation was stored at 4° C. for as long as four weeks.
as §3, with “15.2” for “7-8”, “the 4×” for “the”, “eleven” for “10-12”
(§4) Human DGK-alpha-TVMV-His-pFBgate and human DGK-zeta-transcript variant-2-TVMV-His-pFBgate baculovirus samples were generated using the Bac-to-Bac baculovirus expression system (Invitrogen) according to the manufacturer's protocol. […] Baculovirus amplification was achieved using infected Sf9 cells at 1:1500 virus/cell ratios, and grown for 65 hours at 27° C. post-transfection.
(§5) The expression scale up for each protein was carried out in the Cellbag 50L WAVE-Bioreactor System 20/50 from GE Healthcare Bioscience. 12 L of 2×10^6 cells/mL Sf9 cells (Expression System, Davis, CA) grown in ESF921 insect medium (Expression System) were infected with virus stock at 1:200 virus/cell ratios, and grown for 66-68 hours at 27° C. post-infection.

human DGKζ = target: T2, human DGKζ (Homo sapiens, UniProt Q13574); experiment: In vitro DGK inhibition assay, DGKζ liposome (LIPGLO) assay; format: biochemical; conditions: read-out: Enzyme Inhibition DGKzeta IC50
T2 construct: TVMV protease cleavage site (C); Hexa-His (C); made in house; host or cells: Sf9 insect cells (baculovirus)
T2 sequence (Q13574 with tags, fused parts or gaps isoform Q13574-4): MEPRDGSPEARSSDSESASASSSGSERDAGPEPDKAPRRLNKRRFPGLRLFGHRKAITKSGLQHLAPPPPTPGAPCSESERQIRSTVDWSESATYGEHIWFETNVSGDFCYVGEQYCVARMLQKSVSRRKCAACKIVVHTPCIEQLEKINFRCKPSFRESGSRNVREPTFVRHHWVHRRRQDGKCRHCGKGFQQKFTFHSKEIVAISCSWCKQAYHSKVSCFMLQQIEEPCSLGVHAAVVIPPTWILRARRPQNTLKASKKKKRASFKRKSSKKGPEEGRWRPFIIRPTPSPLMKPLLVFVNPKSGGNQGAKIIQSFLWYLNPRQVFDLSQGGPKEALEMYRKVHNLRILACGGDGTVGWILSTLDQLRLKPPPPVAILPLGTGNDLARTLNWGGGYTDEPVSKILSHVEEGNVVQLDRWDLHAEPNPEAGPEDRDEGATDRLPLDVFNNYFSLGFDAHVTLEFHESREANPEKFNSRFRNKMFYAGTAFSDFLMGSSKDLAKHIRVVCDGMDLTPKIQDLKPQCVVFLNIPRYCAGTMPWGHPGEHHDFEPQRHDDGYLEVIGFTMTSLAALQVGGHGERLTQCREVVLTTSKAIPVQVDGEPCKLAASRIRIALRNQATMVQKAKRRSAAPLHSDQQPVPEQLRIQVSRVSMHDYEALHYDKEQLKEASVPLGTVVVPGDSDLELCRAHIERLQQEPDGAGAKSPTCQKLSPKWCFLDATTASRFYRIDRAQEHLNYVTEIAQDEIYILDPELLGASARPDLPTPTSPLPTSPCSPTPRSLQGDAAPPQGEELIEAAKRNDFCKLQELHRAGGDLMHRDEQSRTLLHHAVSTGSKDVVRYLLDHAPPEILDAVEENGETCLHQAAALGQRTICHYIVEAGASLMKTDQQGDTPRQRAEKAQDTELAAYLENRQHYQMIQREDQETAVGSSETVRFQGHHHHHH
Experimental: as §1, §2, §3
as §3, with “15.2” for “7-8”, “the 4×” for “the”, “eleven” for “10-12”
as §4, §5

SMILES | IC50 (human DGKα) | IC50 (human DGKζ)
CN(c1ccc(C(F)(F)F)cc1)c1cc(=O)n(C)c2ccc(C#N)nc12 [Example 33, 5-methyl-8-(methyl(4-(trifluoromethyl)phenyl)amino)-6-oxo-5,6-dihydro-1,5-naphthyridine-2-carbonitrile] | 6.1 µM | 4.1 µM
CCN(c1ccc(OC)cc1)c1cc(=O)n(C)c2ccc(C#N)nc12 [Example 34, 8-(ethyl(4-methoxyphenyl)amino)-5-methyl-6-oxo-5,6-dihydro-1,5-naphthyridine-2-carbonitrile] | 6.5 µM | 2.5 µM
Cn1c(=O)cc(N(CC2CC2)c2ccc(OC(F)(F)F)cc2)c2nc(C#N)ccc21 [Example 41, 8-((cyclopropylmethyl)(4-(trifluoromethoxy)phenyl)amino)-5-methyl-6-oxo-5,6-dihydro-1,5-naphthyridine-2-carbonitrile] | 8.4 µM | 3 µM
Cc1ccccc1N(CC1CC1)c1cc(=O)n(C)c2ccc(C#N)nc12 [Example 49, 8-((cyclopropylmethyl)(o-tolyl)amino)-5-methyl-6-oxo-5,6-dihydro-1,5-naphthyridine-2-carbonitrile] | 4.8 µM | 56 µM
Cn1c(=O)cc(N(CC2CC2)c2ccc(OC(F)(F)F)cc2Cl)c2nc(C#N)ccc21 [Example 50, 8-((2-chloro-4-(trifluoromethoxy)phenyl)(cyclopropylmethyl)amino)-5-methyl-6-oxo-5,6-dihydro-1,5-naphthyridine-2-carbonitrile] | 4.8 µM | 2.5 µM
Cn1c(=O)cc(N(Cc2ccccc2)CC2CC2)c2nc(C#N)ccc21 [Example 52, 8-(benzyl(cyclopropylmethyl)amino)-5-methyl-6-oxo-5,6-dihydro-1,5-naphthyridine-2-carbonitrile] | 4.5 µM | 12 µM
COc1cc(N(CC2CC2)c2cc(=O)n(C)c3ccc(C#N)nc23)ccc1F [Example 55, 8-((cyclopropylmethyl)(4-fluoro-3-methoxyphenyl)amino)-5-methyl-6-oxo-5,6-dihydro-1,5-naphthyridine-2-carbonitrile] | 7.7 µM | 2.2 µM
Cn1c(=O)c(C#N)c(N(CC2CC2)c2ccc(C3CC3)cc2)c2nc(C#N)ccc21 [Example 59, 8-((cyclopropylmethyl)(4-cyclopropylphenyl)amino)-5-methyl-6-oxo-5,6-dihydro-1,5-naphthyridine-2,7-dicarbonitrile] | > 37 µM | 6.6 µM
Cn1c(=O)c(C#N)c(N(CC2CC2)c2ccc(C3CC3)cc2)c2ncccc21 [Example 60, 4-((cyclopropylmethyl)(4-cyclopropylphenyl)amino)-1-methyl-2-oxo-1,2-dihydro-1,5-naphthyridine-3-carbonitrile] | > 37 µM | 1.4 µM
COCc1ccccc1N(CC1CC1)c1cc(=O)n(C)c2ccc(C#N)nc12 [Example 67, 8-((cyclopropylmethyl)(2-(methoxymethyl)phenyl)amino)-5-methyl-6-oxo-5,6-dihydro-1,5-naphthyridine-2-carbonitrile] | 4.5 µM | 21 µM
Cc1ccc(-c2ccc(N(CC3CC3)c3cc(=O)n(C)c4ccc(C#N)nc34)cc2)cc1 [Example 69, 8-((cyclopropylmethyl)(4′-methyl-[1,1′-biphenyl]-4-yl)amino)-5-methyl-6-oxo-5,6-dihydro-1,5-naphthyridine-2-carbonitrile] | 5.5 µM | 7.5 µM

Further compounds by falling IC50 (human DGKα), results first:

IC50 (human DGKα) | IC50 (human DGKζ) | SMILES
4.4 µM | 1.1 µM | Cn1c(=O)cc(N(CC2CC2)c2ccc(C(F)(F)F)cc2)c2nc(C#N)ccc21 [Example 42, 8-((cyclopropylmethyl)(4-(trifluoromethyl)phenyl)amino)-5-methyl-6-oxo-5,6-dihydro-1,5-naphthyridine-2-carbonitrile]
4.2 µM | 0.15 µM | Cn1c(=O)nc(N(CC2CC2)c2ccc(C3CC3)cc2)c2nc(C#N)ccc21 [Example 57, 4-((cyclopropylmethyl)(4-cyclopropylphenyl)amino)-1-methyl-2-oxo-1,2-dihydropyrido[3,2-d]pyrimidine-6-carbonitrile]
3.9 µM | 1.3 µM | Cn1c(=O)cc(N(CC2CC2)c2ccc(-n3cccc3)cc2)c2nc(C#N)ccc21 [Example 54, 8-((4-(1H-pyrrol-1-yl)phenyl) (cyclopropylmethyl)amino)-5-methyl-6-oxo-5,6-dihydro-1,5-naphthyridine-2-carbonitrile]
3.8 µM | 1 µM | Cn1c(=O)nc(N(CC2CC2)c2ccc(C3CC3)cc2)c2nc(Cl)ccc21 [Example 58, 6-chloro-4-((cyclopropylmethyl) (4-cyclopropylphenyl)amino)-1-methylpyrido[3,2-d]pyrimidin-2(1H)-one]
2.7 µM | 0.19 µM | Cn1c(=O)cc(N(CC2CC2)c2ccc(C3CC3)cc2)c2nc(C#N)ccc21 [Example 40, 8-((cyclopropylmethyl)(4-cyclopropylphenyl)amino)-5-methyl-6-oxo-5,6-dihydro-1,5-naphthyridine-2-carbonitrile]
1.1 µM | 26 µM | Cn1c(=O)cc(N(CC2CC2)c2cccc(OC(F)(F)F)c2)c2nc(C#N)ccc21 [Example 43, 8-((cyclopropylmethyl)(3-(trifluoromethoxy)phenyl)amino)-5-methyl-6-oxo-5,6-dihydro-1,5-naphthyridine-2-carbonitrile]
1 µM | 32 µM | CCCN(CC1CC1)c1nc(=O)n(C)c2ccc(Cl)nc12 [Example 31, 6-chloro-4-((cyclopropylmethyl)(propyl)amino)-1-methylpyrido[3,2-d]pyrimidin-2(1H)-one]
0.89 µM | 0.8 µM | COc1ccc(N(CC2CC2)c2cc(=O)n(C)c3ccc(C#N)nc23)cc1 [Example 36, 8-((cyclopropylmethyl)(4-methoxyphenyl)amino)-5-methyl-6-oxo-5,6-dihydro-1,5-naphthyridine-2-carbonitrile]
0.22 µM | 3 µM | Cn1c(=O)cc(N(CC2CC2)c2ccc(F)cc2)c2nc(C#N)ccc21 [Example 35, 8-((cyclopropylmethyl)(4-fluorophenyl)amino)-5-methyl-6-oxo-5,6-dihydro-1,5-naphthyridine-2-carbonitrile]
0.2 µM | 5.1 µM | Cn1c(=O)cc(N(CC2CC2)c2cccc(C(F)(F)F)c2)c2nc(C#N)ccc21 [Example 47, 8-((cyclopropylmethyl)(3-(trifluoromethyl)phenyl)amino)-5-methyl-6-oxo-5,6-dihydro-1,5-naphthyridine-2-carbonitrile]
0.17 µM | 27 µM | Cn1c(=O)cc(N(CC2CC2)c2cccc(-c3ccccc3)c2)c2nc(C#N)ccc21 [Example 70, 8-([1,1′-biphenyl]-3-yl(cyclopropylmethyl)amino)-5-methyl-6-oxo-5,6-dihydro-1,5-naphthyridine-2-carbonitrile]
0.14 µM | 73 µM | CN(c1nc(=O)n(C)c2ccc(Cl)nc12)C1CCCCC1 [Example 30, 6-chloro-4-(cyclohexyl(methyl)amino)-1-methylpyrido[3,2-d]pyrimidin-2(1H)-one]
